Measurements: EP1165069B1, “ANTITUMOUR SYNERGISTIC COMPOSITION” (Pharmacia Italia S.p.A., priority 1999, dated 2000)

System: disseminated L1210 murine leukemia
Assay: Antileukemic activity against disseminated L1210 murine leukemia (in vivo, iv treatment)
Parameters: species or system mouse
Conditions: for LTS (Long Term Survivors (>60 days) at the end the experiment) / Tox (Number of toxic deaths/number of mice) / ILS% (Increase in life span): combination at the same doses and schedule; for ILS% (Increase in life span): L1210 cells 10^5/mouse iv on day 0
Text: Combining doxorubicin and Ia at the same doses with the same schedule an increase of activity with ILS% values of 150 was observed, indicating a synergistic effect.
For these experiments Ia was solubilized in [Cremophor® /EtOH= 6.5:3.5]/[normal saline]=20/80 v/v, while standard etoposide pharmaceutical preparation and doxorubicin solubilized in water were used.

[1] = Table 2 experiment: Ia 1.5 mg/kg/day iv days +1,2, Doxorubicin 13 mg/kg/day iv day +3
[2] = doxorubicin alone 13 mg/kg day +3, Ia alone 1.5 mg/kg days +1,2
[3] = Table 1 experiment: Ia 1 mg/kg/day iv days +1,2, Etoposide 30 mg/kg/day iv day +3
[4] = etoposide alone 30 mg/kg day +3, Ia alone 1 mg/kg days +1,2

| SMILES | LTS (Long Term Survivors (>60 days) at the end the experiment) [1] | Tox (Number of toxic deaths/number of mice) [1] | ILS% (Increase in life span) [1] | toxicity (in words) [2] | LTS (Long Term Survivors (>60 days) at the end the experiment) [3] | Tox (Number of toxic deaths/number of mice) [3] | ILS% (Increase in life span) [3] | toxicity (in words) [4] |
| --- | --- | --- | --- | --- | --- | --- | --- | --- |
| COc1cccc2c1C(=O)c1c(O)c3c(c(O)c1C2=O)C[C@@](O)(C(=O)CO)C[C@@H]3O[C@H]1C[C@H](N)[C@H](O)[C@H](C)O1 [Doxorubicin, doxorubicin] | 0/10 | 0/10 | 50% | without toxicity | – | – | – | – |
| COc1cc([C@@H]2c3cc4c(cc3[C@@H](O[C@@H]3O[C@@H]5CO[C@@H](C)O[C@H]5[C@H](O)[C@H]3O)[C@H]3COC(=O)[C@H]23)OCO4)cc(OC)c1O [Etoposide, etoposide] | – | – | – | – | 0/10 | 0/10 | 100% | without toxicity |
| CC(=O)[C@]1(O)Cc2c(O)c3c(c(O)c2[C@@H](O[C@H]2C[C@H](N4CC4)[C@H](OS(C)(=O)=O)[C@H](C)O2)C1)C(=O)c1ccccc1C3=O [Ia, 4-demethoxy-3'-deamino-3'-aziridinyl-4'-methansulfonyl daunorubicin] | 0/10 | 0/10 | 67% | without toxicity | 0/10 | 0/10 | 67% | without toxicity |
